The values below are quoted from earlier work in US9814239B2, “Antimicrobial complexes” (priority 2010, dated 2017).

One series relates to Staphylococcus aureus. The note with it: Gram Positive.
The next series relates to Bacillus subtilis. The note with it: Gram Positive.
Another series deals with Streptococcus faecalis. The note with it: Gram Positive.
The next series has as its system Salmonella typhimurium. The note with it: Gram Negative.
The test system of the next series is Escherichia coli. The note with it: Gram Negative.
The next series relates to Saccharomyces cerevisiae. The conditions noted are these: Amoeba (so in the source).
The test system of a further series is Aspergillus niger. The conditions noted are these: Molds.
The test system of a further series is Pseudomonas aeruginosa. The note with it: Gram Negative.
For another series, the system named is Proteus vulgaris. The note with it: Gram Negative.
For a further series, the system named is Endomycopsis albicans. The conditions noted are these: Yeasts.

As for `[O-][n+]1ccccc1S` [Sodium Omadine, sodium omadine], the “Bactericide concentration (ppm)” value is on record as 16 ppm in the series with Staphylococcus aureus; 0.5 ppm in the series with Bacillus subtilis; 2 ppm in the series with Streptococcus faecalis; 16 ppm in the series on Salmonella typhimurium; 16 ppm in the series with Escherichia coli; 128 ppm in the series with Pseudomonas aeruginosa. Further, in the series with Proteus vulgaris, the “Bactericide concentration (ppm)” value is given as 8 ppm. For the same compound, the “Fungicide concentration (ppm)” value in the series with Saccharomyces cerevisiae, in the series with Aspergillus niger and in the series on Endomycopsis albicans was <0.25 ppm each time.
